Results: PubChem BioAssay AID256 (DTP/NCI, 2004)
Values joined by “and” are separate entries in the source; they are usually repeats but may differ in a detail not shown here. Identical values can stand only once. Toxic doses and inconclusive results are not listed. The calls were made as follows: active = survival T/C of 150% or more; inactive = T/C below 125% in these data.

System: CD2F1 mice, L1210 leukemia ip, survival T/C
Test: NCI In Vivo Anticancer Drug Screen. Data for tumor model L1210 Leukemia (intraperitoneal) in CD2F1 (CDF1) mice
Settings: higher = longer survival
How it was run: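 Tumor-bearing mice (transplanted tumor) were split into treated and vehicle control groups, and the measured endpoint of each treated group was divided by that of its vehicle controls.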

[1] = endpoint: mean survival time, dose: 100.0 mg/kg/injection, schedule: Q04DX003 (ip), vehicle: saline
[2] = endpoint: mean survival time, dose: 200.0 mg/kg/injection, schedule: Q01DX009 (ip), vehicle: saline
[3] = endpoint: mean survival time, dose: 50.0 mg/kg/injection, schedule: Q01DX009 (ip), vehicle: saline with Tween-80
[4] = endpoint: mean survival time, dose: 100.0 mg/kg/injection, schedule: Q01DX009 (ip), vehicle: saline with Tween-80
[5] = endpoint: mean survival time, dose: 200.0 mg/kg/injection, schedule: Q01DX009 (ip), vehicle: saline with Tween-80
[6] = endpoint: mean survival time, dose: 100.0 mg/kg/injection, schedule: Q01DX001 (ip), vehicle: saline
[7] = endpoint: mean survival time, dose: 200.0 mg/kg/injection, schedule: Q01DX001 (ip), vehicle: saline
[8] = endpoint: mean survival time, dose: 400.0 mg/kg/injection, schedule: Q01DX001 (ip), vehicle: saline
[9] = endpoint: mean survival time, dose: 100.0 mg/kg/injection, schedule: Q04DX003 (ip), vehicle: saline with Tween-80
[10] = endpoint: mean survival time, dose: 200.0 mg/kg/injection, schedule: Q04DX003 (ip), vehicle: saline with Tween-80
[11] = endpoint: mean survival time, dose: 100.0 mg/kg/injection, schedule: Q01DX001 (ip), vehicle: saline with Tween-80
[12] = endpoint: mean survival time, dose: 100.0 mg/kg/injection, schedule: Q04DX002 (ip), vehicle: saline with Tween-80
[13] = endpoint: mean survival time, dose: 200.0 mg/kg/injection, schedule: Q01DX001 (ip), vehicle: saline with Tween-80
[14] = endpoint: mean survival time, dose: 400.0 mg/kg/injection, schedule: Q01DX001 (ip), vehicle: saline with Tween-80

Measured: T/C

NC(N)=Nc1cccc(OCCCOc2ccccc2)c1
inactive: endpoint: mean survival time, dose: 18.75 mg/kg/injection, schedule: Q01DX001 (ip), vehicle: saline with Tween-80 102 % of control | endpoint: mean survival time, dose: 37.5 mg/kg/injection, schedule: Q01DX001 (ip), vehicle: saline with Tween-80 98 % of control | endpoint: mean survival time, dose: 75.0 mg/kg/injection, schedule: Q01DX001 (ip), vehicle: saline with Tween-80 97 % of control

COC(=O)c1n[nH]c(C(C)C)c1N=NN(C)C
inactive: endpoint: mean survival time, dose: 37.5 mg/kg/injection, schedule: Q01DX009 (ip), vehicle: saline with Tween-80 106 % of control | endpoint: mean survival time, dose: 75.0 mg/kg/injection, schedule: Q01DX009 (ip), vehicle: saline with Tween-80 121 % of control | endpoint: mean survival time, dose: 150.0 mg/kg/injection, schedule: Q01DX009 (ip), vehicle: saline with Tween-80 92 % of control

O=S(=O)(O)O.[N-]=C(N)/N=C(\[NH-])N.[N-]=C(N)/N=C(\[NH-])N.[N-]=C(N)NC(=[N-])N.[Rh+3]
inactive: endpoint: mean survival time, dose: 25.0 mg/kg/injection, schedule: Q04DX003 (ip), vehicle: saline 96 % of control | [1] 100 % of control

O=C(O)CC(NC(=O)CP(=O)(O)O)C(=O)O (configuration not stated)
inactive: endpoint: mean survival time, dose: 86.4 mg/kg/injection, schedule: Q01DX009 (ip), vehicle: saline 98 % of control | [2] 112 % of control | endpoint: mean survival time, dose: 225.0 mg/kg/injection, schedule: Q01DX009 (ip), vehicle: saline 116 % of control | endpoint: mean survival time, dose: 240.0 mg/kg/injection, schedule: Q01DX009 (ip), vehicle: saline 105 % of control | endpoint: mean survival time, dose: 250.0 mg/kg/injection, schedule: Q01DX009 (ip), vehicle: saline 115 % of control

CCC(C)C(C(=O)OCCN(C)C)c1ccccc1 (configuration not stated)
inactive: [3] 100 % of control | [4] 97 % of control | [5] 103 % of control

COC(=O)NCCNC(=O)OC
inactive: [6] 98 % of control | [7] 98 % of control | [8] 101 % of control

O=C(N1CCC2(CC1)SSC1(CCN(C(=O)C(F)(F)F)CC1)S2)C(F)(F)F
inactive: [9] 88 % of control | [10] 90 % of control | endpoint: mean survival time, dose: 400.0 mg/kg/injection, schedule: Q04DX003 (ip), vehicle: saline with Tween-80 90 % of control

Nc1nc(N)c(-c2ccc(Cl)c(Cl)c2)c(CP(Cl)(Cl)(Cl)Br)n1
active: [3] 160 % of control
inactive: endpoint: mean survival time, dose: 12.5 mg/kg/injection, schedule: Q01DX009 (ip), vehicle: Klucel (hydroxypropylcellulose) (HPC) 100 % of control | endpoint: mean survival time, dose: 25.0 mg/kg/injection, schedule: Q01DX009 (ip), vehicle: Klucel (hydroxypropylcellulose) (HPC) 94 % of control | endpoint: mean survival time, dose: 50.0 mg/kg/injection, schedule: Q01DX009 (ip), vehicle: Klucel (hydroxypropylcellulose) (HPC) 102 % of control | [11] 98 % of control | endpoint: mean survival time, dose: 100.0 mg/kg/injection, schedule: Q01DX009 (ip), vehicle: Klucel (hydroxypropylcellulose) (HPC) 88 % of control | [12] 94 % of control | [9] 95 % of control | [13] 90 % of control | endpoint: mean survival time, dose: 200.0 mg/kg/injection, schedule: Q04DX002 (ip), vehicle: saline with Tween-80 107 % of control | [10] 100 % of control | [14] 105 % of control | endpoint: mean survival time, dose: 400.0 mg/kg/injection, schedule: Q04DX002 (ip), vehicle: saline with Tween-80 100 % of control

CC1CC(=O)OC2CC(C)(C)CC(=O)C12 (configuration not stated)
inactive: endpoint: mean survival time, dose: 100.0 mg/kg/injection, schedule: Q01DX009 (ip), vehicle: saline 104 % of control | endpoint: mean survival time, dose: 100.0 mg/kg/injection, schedule: Q04DX003 (ip), vehicle: saline sonified 98 % of control | [2] 106 % of control | endpoint: mean survival time, dose: 200.0 mg/kg/injection, schedule: Q04DX003 (ip), vehicle: saline sonified 95 % of control | endpoint: mean survival time, dose: 400.0 mg/kg/injection, schedule: Q01DX009 (ip), vehicle: saline 104 % of control | endpoint: mean survival time, dose: 400.0 mg/kg/injection, schedule: Q04DX003 (ip), vehicle: saline sonified 95 % of control

O=C(C[n+]1cc2ccccc2cc1/C=N/O)c1ccccc1
inactive: [3] 98 % of control | [4] 93 % of control | [9] 95 % of control | [5] 96 % of control | [10] 95 % of control

CN(C(=O)CCC(=O)N(C)c1ccccc1)c1ccccc1
inactive: [11] 103 % of control | [13] 92 % of control | [14] 92 % of control

CC1(C)COC(=O)C(C)(C)C1=O
inactive: endpoint: mean survival time, dose: 25.0 mg/kg/injection, schedule: Q04DX002 (ip), vehicle: saline with Tween-80 107 % of control | endpoint: mean survival time, dose: 50.0 mg/kg/injection, schedule: Q04DX002 (ip), vehicle: saline with Tween-80 96 % of control | [12] 96 % of control

CCN(CC)C1=C(C)S(=O)(=O)C1c1ccc(C)cc1 (configuration not stated)
inactive: [3] 102 % of control | [6] 97 % of control | [4] 98 % of control | [1] 103 % of control | [7] 97 % of control | [5] 98 % of control | endpoint: mean survival time, dose: 200.0 mg/kg/injection, schedule: Q04DX003 (ip), vehicle: saline 109 % of control | [8] 97 % of control | endpoint: mean survival time, dose: 400.0 mg/kg/injection, schedule: Q04DX003 (ip), vehicle: saline 100 % of control

CCn1cnc2c(=S)nc[nH]c21
active: endpoint: mean survival time, dose: 37.5 mg/kg/injection, schedule: Q03HX024 (ip), vehicle: saline 156 % of control | endpoint: mean survival time, dose: 56.3 mg/kg/injection, schedule: Q03HX024 (ip), vehicle: saline 163 % of control | endpoint: mean survival time, dose: 60.0 mg/kg/injection, schedule: Q03HX008 (ip), vehicle: saline 161 % of control | endpoint: mean survival time, dose: 75.0 mg/kg/injection, schedule: Q03HX016 (ip), vehicle: saline 161 % of control | endpoint: mean survival time, dose: 300.0 mg/kg/injection, schedule: Q08DX002 (ip), vehicle: saline 151 % of control | endpoint: median survival time, dose: 62.5 mg/kg/injection, schedule: Q01DX009 (ip), vehicle: saline 188 % of control | endpoint: median survival time, dose: 100.0 mg/kg/injection, schedule: Q01DX009 (ip), vehicle: saline with Tween-80 183 % of control
inactive: endpoint: mean survival time, dose: 9.4 mg/kg/injection, schedule: Q03HX024 (ip), vehicle: saline 107 % of control | endpoint: mean survival time, dose: 15.0 mg/kg/injection, schedule: Q01DX009 (ip), vehicle: saline 104 % of control | endpoint: mean survival time, dose: 15.0 mg/kg/injection, schedule: Q03HX008 (ip), vehicle: saline 121 % of control | endpoint: mean survival time, dose: 18.8 mg/kg/injection, schedule: Q03HX016 (ip), vehicle: saline 101 % of control | endpoint: mean survival time, dose: 30.0 mg/kg/injection, schedule: Q01DX009 (ip), vehicle: saline 113 % of control | endpoint: mean survival time, dose: 75.0 mg/kg/injection, schedule: Q03DX003 (ip), vehicle: saline 101 % of control | endpoint: mean survival time, dose: 75.0 mg/kg/injection, schedule: Q04DX003 (ip), vehicle: saline 108 % of control and 109 % of control | endpoint: mean survival time, dose: 120.0 mg/kg/injection, schedule: Q01DX009 (ip), vehicle: saline 87 % of control | endpoint: mean survival time, dose: 150.0 mg/kg/injection, schedule: Q01DX001 (ip), vehicle: saline 115 % of control | endpoint: mean survival time, dose: 150.0 mg/kg/injection, schedule: Q01DX007 (ip), vehicle: saline 96 % of control | endpoint: mean survival time, dose: 150.0 mg/kg/injection, schedule: Q01DX009 (ip), vehicle: saline 106 % of control | endpoint: mean survival time, dose: 150.0 mg/kg/injection, schedule: Q03DX003 (ip), vehicle: saline 112 % of control | endpoint: mean survival time, dose: 300.0 mg/kg/injection, schedule: Q04DX003 (ip), vehicle: saline 112 % of control | endpoint: mean survival time, dose: 600.0 mg/kg/injection, schedule: Q08DX002 (ip), vehicle: saline 105 % of control | endpoint: median survival time, dose: 12.5 mg/kg/injection, schedule: Q01DX009 (ip), vehicle: saline with Tween-80 118 % of control | endpoint: median survival time, dose: 25.0 mg/kg/injection, schedule: Q01DX009 (ip), vehicle: saline with Tween-80 118 % of control | endpoint: median survival time, dose: 31.3 mg/kg/injection, schedule: Q01DX009 (ip), vehicle: saline 100 % of control and 111 % of control | endpoint: median survival time, dose: 125.0 mg/kg/injection, schedule: Q01DX009 (ip), vehicle: saline 116 % of control | endpoint: median survival time, dose: 200.0 mg/kg/injection, schedule: Q01DX009 (ip), vehicle: saline with Tween-80 118 % of control

CSc1nn(C2OC(COC(=O)c3ccccc3)C(OC(=O)c3ccccc3)C2OC(=O)c2ccccc2)c(=O)[nH]c1=S (configuration not stated)
inactive: endpoint: mean survival time, dose: 12.5 mg/kg/injection, schedule: Q01DX005 (ip), vehicle: distilled water + Tween-80 96 % of control | endpoint: mean survival time, dose: 25.0 mg/kg/injection, schedule: Q01DX005 (ip), vehicle: distilled water + Tween-80 98 % of control | endpoint: mean survival time, dose: 50.0 mg/kg/injection, schedule: Q01DX005 (ip), vehicle: distilled water + Tween-80 95 % of control | endpoint: mean survival time, dose: 100.0 mg/kg/injection, schedule: Q01DX005 (ip), vehicle: distilled water + Tween-80 93 % of control | endpoint: mean survival time, dose: 200.0 mg/kg/injection, schedule: Q01DX005 (ip), vehicle: distilled water + Tween-80 91 % of control
